Converted amounts (≈) assume the structure as drawn. Read-outs that look alike come from different tables or passages of the source.
Tests used:
rats [1] = assay: Determination of the LD50 by i.v. administration; type: in vivo; conditions: i.v. 12.5-100 mg/kg
Method: (§1) Determination of the LD50 of 1-(2-(2,4-dichlorophenyl)-2-(3-(4-chlorophenylthio)propylamino)ethyl)-1H-imidazole dihydrochloride (compound No. 96) in mice and rats by i.v. administration. In each case, 0 (0.9% NaCl solution), 12.5, 25.0, 50.0 and 100 mg/kg of body weight were injected i.v. into 5 groups of female and male animals.
(§2) The following clinical signs were observed.

mice [2] = assay: Determination of the LD50 by i.v. administration; type: in vivo; conditions: i.v. 12.5-100 mg/kg
Method: as §1, §2

[3] = Determination of the LD50 by i.v. administration; type: in vivo; conditions: in vivo, iv
Method: as §1, §2

Epidermophyton floccosum = assay: In vitro determination of minimum inhibitory concentration (MIC), serial dilution; type: cell-based; conditions: 336 h, pH 6, Epidermophyton floccosum, pH 6.0, 22° C., 14 days
Method: (§3) The antimycotic activities of the compounds were measured by in vitro determination of the minimum inhibitory concentration (MIC) for yeasts, molds and dermatophytes.
(§4) 6 dermatophytes, 2 yeasts and 4 molds were used for testing with fungi, as follows:
(§5) The minimum inhibitory concentration (MIC) was determined in serial dilution tests in test tubes. The volume of the liquid nutrient medium in each test tube was 4.5 ml.
(§6) The substances were dissolved in DMSO and diluted with sterile distilled water to 10 concentrations (100, 50, 25, 12.5, 6.25, 3.12, 1.56, 0.78, 0.39 and 0.19 μg/ml). 0.5 ml of each of these dilution steps was added to liquid nutrient medium. Thus, a constant concentration of solvent in all the nutrient media was ensured, irrespective of the active compound concentration.
(§7) A comparison solution which contained only the solvent in appropriate concentration was included when carrying out each of the tests.
(§8) The individual strains were maintained on Sabouraud/beerwort agar slants and, before they were used in a test, they underwent a passage on a modified Sabouraud liquid nutrient medium. The strains were then harvested, washed and converted into a suspension of McFaerland 3 in the case of yeasts and molds and of McFaerland 4-5 in the case of dermatophytes.
(§9) The amount of material inoculated (inoculum) was 100 μl/test tube (inoculated densities: yeasts about 10^3 /ml, molds about 10^4 /ml, dermatophytes about 10^4 /ml). The pH of the liquid nutrient medium was 6.0. After inoculation had taken place the fungi were incubated at 22° C. for 14 days.
(§10) The MIC was then determined. The concentration step at which growth was no longer visible on macroscopic inspection was used for the determination of the MIC. The comparison substance used was 1-(2-(2,4-dichlorophenyl)-2-(2,4-dichlorophenylmethoxy)ethyl)-1H-imidazole(compound A).

[4] = test system: Trichophyton mentagrophytes; assay: as above; type: cell-based; conditions: 336 h, pH 6, Trichophyton mentagrophytes, pH 6.0, 22° C., 14 days
Method: as §3, §4, §5, §6, §7, §8, §9, §10

Absidia ramosa = assay: as above; type: cell-based; conditions: Lichtheimia ramosa, 336 h, pH 6, Absidia ramosa; pH 6.0, 22° C., 14 days
Method: as §3, §4, §5, §6, §7, §8, §9, §10

Candida tropicalis = assay: as above; type: cell-based; conditions: 336 h
Method: as §3, §4, §5, §6, §7, §8, §9, §10

Microsporum canis = assay: as above; type: cell-based; conditions: 336 h, pH 6, Microsporum canis, pH 6.0, 22° C., 14 days
Method: as §3, §4, §5, §6, §7, §8, §9, §10

Aspergillus fumigatus = assay: as above; type: cell-based
Method: as §3, §4, §5, §6, §7, §8, §9, §10

Mucor mucedo plus = assay: as above; type: cell-based; conditions: Mucor mucedo, 336 h, pH 6, Mucor mucedo plus; pH 6.0, 22° C., 14 days
Method: as §3, §4, §5, §6, §7, §8, §9, §10

Trichophyton rubrum = assay: as above; type: cell-based; conditions: 336 h, pH 6, Trichophyton rubrum, pH 6.0, 22° C., 14 days
Method: as §3, §4, §5, §6, §7, §8, §9, §10

Trichophyton verrucosum = assay: as above; type: cell-based; conditions: 336 h, pH 6, Trichophyton verrucosum, pH 6.0, 22° C., 14 days
Method: as §3, §4, §5, §6, §7, §8, §9, §10

Mucor mucedo minus = assay: as above; type: cell-based; conditions: Mucor mucedo, 336 h, pH 6, Mucor mucedo minus; pH 6.0, 22° C., 14 days
Method: as §3, §4, §5, §6, §7, §8, §9, §10

Microsporum gypseum = assay: as above; type: cell-based; conditions: Nannizzia gypsea, 336 h
Method: as §3, §4, §5, §6, §7, §8, §9, §10

Candida albicans = assay: as above; type: cell-based; conditions: 336 h
Method: as §3, §4, §5, §6, §7, §8, §9, §10

[5] = test system: Salmonella typhimurium strains TA 1535, TA 1537, TA 1538, TA 98 and TA 100; assay: Potential to cause gene mutations in Salmonella typhimurium; type: cell-based; conditions: 3.3-1,000 μg/plate
Method: Compound No. 96 was investigated for its potential to cause gene mutations in five Salmonella typhimurium strains TA 1535, TA 1537, TA 1538, TA 98 and TA 100.
The following concentrations were tested, both with metabolic activator (S 9 mix) and without metabolic activator.

rats [6] = assay: Determination of the lethal dose on single oral administration; type: in vivo; conditions: for LD100: oral, once
Method: (§11) Determination of the lethal dose of 1-(2-(2,4-dichlorophenyl)-2-(3-(4-chlorophenylthio)propylamino)ethyl)-1H-imidazole dihydrochloride (compound No. 96) in mice and rats on administration once.
(§12) In each case, oral doses of 0, 500, 1,000 and 3,000 mg/kg of body weight were administered to four groups of female and male animals.
(§13) (Control: double-distilled water)
as §2

mice [7] = assay: as above; type: in vivo; conditions: for LD100: oral, once
Method: as §11, §12, §13, §2

[8] = pH 6, Candida tropicalis, pH 6.0, 22° C., 14 days, read-out: MIC C.trop
[9] = pH 6, Microsporum gypseum, pH 6.0, 22° C., 14 days, read-out: MIC Mi.gyp
[10] = pH 6, Candida albicans, pH 6.0, 22° C., 14 days, read-out: MIC C.alb
[11] = oral 0, 500, 1,000 and 3,000 mg/kg

MIC (Epidermophyton floccosum)	MIC [4]	MIC (Absidia ramosa)	MIC (Candida tropicalis; [8])	MIC (Microsporum canis)	MIC Asp.fu. (Aspergillus fumigatus; 20160 min, pH 6)	MIC (Mucor mucedo plus)	MIC (Trichophyton rubrum)	MIC (Trichophyton verrucosum)	MIC (Mucor mucedo minus)	MIC (Microsporum gypseum; [9])	MIC (Candida albicans; [10])	Structure (SMILES)	also measured
3.12 µg/mL (≈ 7.39 µM)	3.12 µg/mL (≈ 7.39 µM)	3.12 µg/mL (≈ 7.39 µM)	12.5 µg/mL (≈ 29.6 µM)	1.56 µg/mL (≈ 3.7 µM)	3,12 μg/ml	3.12 µg/mL	1.56 µg/mL (≈ 3.7 µM)	1.56 µg/mL (≈ 3.7 µM)	3.12 µg/mL (≈ 7.39 µM)	1.56 µg/mL (≈ 3.7 µM)	3.12 µg/mL (≈ 7.39 µM)	Clc1ccc(SCCCNC(Cn2ccnc2)c2cccc3ccccc23)cc1 (centres unmarked) [Compound 139]	
0.78 µg/mL (≈ 1.86 µM)	0.78 µg/mL (≈ 1.86 µM)	6.25 µg/mL (≈ 14.9 µM)	12.5 µg/mL (≈ 29.7 µM)	3.12 µg/mL (≈ 7.42 µM)	0,78 μg/ml	0.78 µg/mL	0.78 µg/mL (≈ 1.86 µM)	0.78 µg/mL (≈ 1.86 µM)	3.12 µg/mL (≈ 7.42 µM)	0.78 µg/mL (≈ 1.86 µM)	12.5 µg/mL (≈ 29.7 µM)	Cc1ccc(SCCCNC(Cn2ccnc2)c2ccc(Cl)cc2Cl)cc1 (centres unmarked) [Compound 92]	

More lines, now with the values behind:

Structure (SMILES)	MIC (Epidermophyton floccosum)	MIC [4]	MIC (Absidia ramosa)	MIC (Candida tropicalis; [8])	MIC (Microsporum canis)	MIC Asp.fu. (Aspergillus fumigatus; 20160 min, pH 6)	MIC (Mucor mucedo plus)	MIC (Trichophyton rubrum)	MIC (Trichophyton verrucosum)	MIC (Mucor mucedo minus)	MIC (Microsporum gypseum; [9])	MIC (Candida albicans; [10])	also measured
Cl.Cl.Clc1ccc(SCCCNC(Cn2ccnc2)c2ccc(Cl)cc2Cl)cc1 (centres unmarked) [Compound 96, 1-(2-(2,4-dichlorophenyl)-2-(3-(4-chlorophenylthio)propylamino)ethyl)-1H-imidazole dihydrochloride]	0.19 µg/mL	0.39 µg/mL	1.56 µg/mL	0.78 µg/mL	0.39 µg/mL	0,78 μg/ml	1.56 µg/mL	0.19 µg/mL	0.39 µg/mL	1.56 µg/mL	0.39 µg/mL	0.39 µg/mL	clinical signs (rats [1]): Inactivity, necrotic tail, convulsions; clinical signs (mice [2]): Inactivity, necrotic tail; LD50 ([3]; mouse, mice, female, range in parentheses): 84.1 mg/kg; LD50 ([3]; mouse, mice, male, range in parentheses): 42 mg/kg; LD50 ([3]; rat, rats, female, range in parentheses): 56.1 mg/kg; LD50 ([3]; rat, rats, male): 70.7 mg/kg; mutagenic activity ([5]; with metabolic activator (S 9 mix)): No mutagenic activity whatever was observed; mutagenic activity ([5]; without metabolic activator): No mutagenic activity whatever was observed; LD100 (rats [6]; female): > 500 mg/kg; LD100 (rats [6]; male): > 1,000 mg/kg; clinical signs (rats [6]; [11]): Inactivity, ruffled fur, convulsions; LD100 (mice [7]; female): > 1,000 mg/kg; LD100 (mice [7]; male): > 500 mg/kg; clinical signs (mice [7]; [11]): Inactivity, convulsions
Clc1ccc(COC(Cn2ccnc2)c2ccc(Cl)cc2Cl)c(Cl)c1 (centres unmarked) [A, 1-(2-(2,4-dichlorophenyl)-2-(2,4-dichlorophenylmethoxy)ethyl)-1H-imidazole, reference compound]	1.56 µg/mL (≈ 3.75 µM)	1.56 µg/mL (≈ 3.75 µM)	12.5 µg/mL (≈ 30 µM)		6.25 µg/mL (≈ 15 µM)		12.5 µg/mL	6.25 µg/mL (≈ 15 µM)	6.25 µg/mL (≈ 15 µM)	12.5 µg/mL (≈ 30 µM)			MIC (Candida tropicalis; pH 6, read-out: MIC C.trop): 12.5 µg/mL (≈ 30 µM); MIC Asp.fu. (Aspergillus fumigatus; Aspergillus fumigatus, pH 6.0, 22° C., 14 days): 3,12 μg/ml; MIC (Microsporum gypseum; pH 6, read-out: MIC Mi.gyp): 3.12 µg/mL (≈ 7.5 µM); MIC (Candida albicans; pH 6, read-out: MIC C.alb): 12.5 µg/mL (≈ 30 µM)
Clc1ccc(SCCNC(Cn2ccnc2)c2ccc(Cl)cc2Cl)cc1 (centres unmarked) [Compound 34]	0.78 µg/mL (≈ 1.83 µM)	0.78 µg/mL (≈ 1.83 µM)	6.25 µg/mL (≈ 14.6 µM)	3.12 µg/mL (≈ 7.31 µM)	0.78 µg/mL (≈ 1.83 µM)	6,25 μg/ml	3.12 µg/mL	0.78 µg/mL (≈ 1.83 µM)	0.78 µg/mL (≈ 1.83 µM)	3.12 µg/mL (≈ 7.31 µM)	0.78 µg/mL (≈ 1.83 µM)	3.12 µg/mL (≈ 7.31 µM)	
